Experimental data taken from PubChem BioAssay (NCI).
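Protocol summary: plate cells (96-well), add compound at 5 concentrations, incubate 48 h, interpolate endpoints linearly. The concentration for 50% growth inhibition is given as GI50. The concentration for full growth arrest is given as TGI.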

What was measured:
Assay in all cases: growth of human tumour cells (NCI), 48 h
SN12C renal = system: SN12C renal
MDA-MB-435 = system: MDA-MB-435
T-47D breast = system: T-47D breast
M14 melanoma = system: M14 melanoma
HCC-2998 colon = system: HCC-2998 colon
SF-539 CNS = system: SF-539 CNS
U251 CNS = system: U251 CNS
NCI-H23 lung = system: NCI-H23 lung

| SMILES | GI50 (SN12C renal) [µM] | TGI (SN12C renal) [µM] | GI50 (MDA-MB-435) [µM] | TGI (MDA-MB-435) [µM] | GI50 (T-47D breast) [µM] | TGI (T-47D breast) [µM] | GI50 (M14 melanoma) [µM] | TGI (M14 melanoma) [µM] | GI50 (HCC-2998 colon) [µM] | TGI (HCC-2998 colon) [µM] | GI50 (SF-539 CNS) [µM] | TGI (SF-539 CNS) [µM] | GI50 (U251 CNS) [µM] | TGI (U251 CNS) [µM] | GI50 (NCI-H23 lung) [µM] | TGI (NCI-H23 lung) [µM] |
| --- | --- | --- | --- | --- | --- | --- | --- | --- | --- | --- | --- | --- | --- | --- | --- | --- |
| Nc1ccccc1C#C/C=C\C#Cc1ccccc1OC(F)(F)F | 9.85 | 26.8 | 1.39 | 6.04 | 4.19 | 74.1 | 3.86 | 17.8 | 2.93 | 14.7 | 3.5 | 13.3 | 5.44 | 22.2 | 6.44 | 80.2 |
| CCN(CC)N=Nc1c(C(N)=O)n[nH]c1C | – | > 100 | – | > 100 | – | > 100 | – | > 100 | – | > 100 | – | > 100 | – | > 100 | – | > 100 |
| COC([CH2][Hg][n]1cnc2c1c(=O)n(C)c(=O)n2C)CN1C(=O)c2ccccc2S1(=O)=O (stereo not drawn) | > 100 | > 100 | > 100 | > 100 | > 100 | > 100 | > 100 | > 100 | > 100 | > 100 | > 100 | > 100 | > 100 | > 100 | > 100 | > 100 |
| C=C(C)C(OC)C(O)CC1(C)CC(O)CC(C)(C2CCC3OC(C4(C)CCC(Br)C(C)(C)O4)CCC3(C)O2)O1 (stereo not drawn) | 18.3 | 39.4 | 19.8 | 46.3 | 2.27 | 22.2 | 17.4 | 32.7 | 14.8 | 30.1 | 18.9 | 36.5 | 25.5 | > 61.9 | 16 | 34.6 |
| Fc1[nH]nc2ccc([C@@H]3Nc4ccc5[nH]ncc5c4[C@H]4C5CCC(C5)[C@@H]34)cc12 (stereo partly drawn) | 1.99 | 18.1 | 0.286 | 1.08 | 0.436 | 12.9 | 0.514 | 11.7 | 3.14 | 12.8 | 0.854 | 3.94 | 1.02 | 13.5 | 2.8 | 15.9 |
| Cc1ccnc2c1ccc1c(C)ccnc12 | 0.441 | 13.1 | 0.481 | 13.1 | 0.883 | 12.6 | 0.294 | 10.2 | 0.381 | 15.1 | 0.316 | 5.06 | 0.419 | 11.5 | 0.741 | 20.2 |
| OCc1cc2ccccc2c2c3c(ccc12)OCO3 | 29.1 | 141 | 39.3 | 160 | 24.1 | 81.5 | 41.2 | 169 | 37.8 | 232 | 23.2 | 87 | 28.6 | 141 | 34.1 | 221 |
| COC1/C=C/OC2(C)Oc3c(C)c(O)c4c(O)c(c(/C=N/Nc5ccc([N+](=O)[O-])cc5[N+](=O)[O-])c(O)c4c3C2=O)NC(=O)C(C)=C/C=C/C(C)C(O)C(C)C(O)C(C)C(OC(C)=O)C1C (stereo not drawn) | 10.2 | > 50 | 1.28 | 3.72 | 2.07 | > 50 | 1.61 | 5.86 | 5.05 | 11.6 | 1.9 | 19.4 | 1.3 | 3.55 | 1.7 | 7.02 |
| OC1CSSC1Cn1cnc2c(Nc3ccc(OCc4cccc(F)c4)c(Cl)c3)ncnc21 (stereo not drawn) | 4.02 | 9.5 | 0.35 | 0.788 | 1.3 | 8.4 | 0.0912 | 0.288 | 0.952 | 3.49 | 1.89 | 7.67 | 0.712 | 1.43 | 0.689 | 1.73 |
| FC(F)(F)c1cccc(Nc2nc(-c3ccccc3)nc3ncccc23)c1 | 5 | 64.3 | 3.77 | 22.8 | 3.53 | 15.2 | 3.79 | 16.5 | 4.91 | 30.2 | 5.06 | 17.5 | 3.52 | 14.7 | 5.03 | 28.4 |
| Cc1nc2sccn2c1-c1csc(Nc2ccccc2Cl)n1 | 3.58 | > 100 | 0.69 | 8.61 | 2.33 | 66.5 | 3.38 | 18 | 6.25 | 45.3 | 3.2 | 16.3 | 3.7 | 24.1 | 2.28 | 35.4 |
